Test results: US10842845B2, “Oxytocin improves treatment of obstructive sleep apnea” (THE GEORGE WASHINGTON UNIVERSITY, priority 2014, dated 2020)
Entries after “also recorded” stand apart in the source; their conditions may differ.

Legend:
rats = conditions: acute icy infusion of oxytocin; cited from earlier work
[1] = tested on: Patients recently diagnosed with OSA; assay: Intranasal oxytocin in patients recently diagnosed with OSA (polysomnography, sleep quality score); assay type: in vivo, human; conditions: 40 IU oxytocin intranasally about one hour prior to sleeping
Description: Patients recently diagnosed with OSA were recruited to test the effect of oxytocin administration on heart rate, apnea-hypopnea index, oxygen saturation, apnea duration, arousal index etc. The study is approved by the FDA (IND #120989). Patients were administered 40 IU of oxytocin intranasally about one hour prior to sleeping.
The following eight outcomes were compared in the same patients prior to and after administration with oxytocin: • basal heart rate before sleep (primary outcome) • mean changes in heart rate with apneic and hypopneic events (primary outcome) • apnea-hypopnea index (secondary outcome) • percentage of time spent by the patient with oxygen saturations: >90%, >80% but <90%, and <80% (secondary outcome) • duration of apneas • oxygen desaturation during apneas (expressed as adverse desaturations in percent oxygen) • numbers of arousals (expressed per hour) • sleep quality
The following information was recorded for each patient before and after the use of intranasal oxytocin:
• a. Basal heart rate before sleep • b. Apnea-hypopnea index • c. Mean changes in heart rate with apneic and hypopneic events • d. Percentage of time spent by the patient with oxygen saturations: >90%, >80% but <90%, and <80%. • e. Duration of apneas • f. Oxygen desaturation during apneas (expressed as adverse desaturations in percent oxygen) • g. Numbers of arousals (expressed per hour) • h. Sleep quality 3. Standard of care sleep study data using PSG: Polysomnography (PSG) monitors many body functions during sleep, including brain (EEG), eye movements (EOG), muscle activity or skeletal muscle activation (EMG), heart rhythm (ECG), respiratory airflow, thoracic and abdominal respiratory effort, body position, limb movement, and oxygen saturation using pulse oximetry. Recording and scoring was done according to the standards set by the American Academy of Sleep Medicine. 4. Sleep quality score: Patients were asked to rank their responses using the scale of 1-5 for a set of empirical factors: • 1—Strongly disagree • 2—Slightly disagree • 3—Neither agree nor disagree • 4—Slightly agree • 5—Strongly agree Empirical Factors: • I feel more refreshed than usual this morning • My quality of sleep last night was better than usual • I slept deeper than usual last night • I woke up fewer times than usual last night • I slept longer than usual last night • I feel better overall than usual this morning

[2] = same patients prior to and after administration

## CC[C@H](C)[C@@H]1NC(=O)[C@H](Cc2ccc(O)cc2)NC(=O)[C@@H](N)CSSC[C@@H](C(=O)N2CCC[C@H]2C(=O)N[C@@H](CC(C)C)C(=O)NCC(N)=O)NC(=O)[C@H](CC(N)=O)NC(=O)[C@H](CCC(N)=O)NC1=O [oxytocin]
rats
  high-frequency activity in the electroencephalogram (EEG) within non-REMS: augmented
  non-REMS and REMS: transient reduction
  sleep onset latency: delayed
[1]; [2]
  duration of apnea: reduces
  number of arousals/hour: decreases; also recorded: reduces
  oxygen desaturation: reduces
[1]; score on scale of 1-5 for empirical factors
  sleep quality or sleep satisfaction: improves
